The text below walks through data of patent US20260345507A1, “COMPOSITIONS AND METHODS FOR DELIVERY OF RNA” (REJUVENATION TECHNOLOGIES, INC., priority 2022, published 2026).

A short description of data set [1]: Pharmacokinetics of 5-lipid LNP (DOTAP by LC-MS/MS). In kind it is in vivo, mouse. Also noted: Decay constant: unit not given here. As to conditions: 1.0 mg mRNA/kg; for half-life: mouse, 1 mg/kg. How it is done: Methods: LNPs were formulated using lipid molar ratios in Table 1 with mRNA encoding human telomerase. CD1 male mice were dosed at 1.0 mg mRNA/kg of body weight, and plasma and tissue were collected at time points 0 (<5 min) and 24 hours. DOTAP was measured using LC-MS/MS. mRNA was measured by qRT-PCR. “Liver Rest” is the liver sample excluding the left lobe.

The next data set relates to P21. Put plainly: Senescence marker P21 in lung alveolar cells of bleomycin-treated mice. In kind it is in vivo, mouse. Particulars: following bleomycin treatment. How it is done: FIGS. 3-17 and FIGS. 20-21 depict experiments involving the use of a different 5 lipid LNP composition where lung fibrosis was induced in third generation (G3) TERT knock-out (KO) mice, which have telomere lengths that are similar to those of humans. Bleomycin was administered via oropharyngeal aspiration at 2.0 U/kg. For FIGS. 13-16, an initial dose of bleomycin was administered via oropharyngeal aspiration at 0.5 U/kg one week prior to the 2.0 U/kg dose. LNPs were formulated with firefly luciferase mRNA (Ctrl) or TERT mRNA (mouse SEQ ID NO: 2, including synthetic 5′ UTR (SEQ ID NO: 3), wt mTert coding sequence (SEQ ID NO: 4) and mouse alpha-globin 3′ UTR (SEQ ID NO: 5)) (referred to as “TERT mRNA LNP” herein or “TERT” or “TERT mRNA” in the figures) and the lipids in the ratios of Table 3. The DOTAP molar ratio is 2.27 times higher in the 5 lipid LNP of Table 3. Mice were dosed at 1.5 mg/kg twice a week for two weeks beginning on day 7 post bleomycin. Some mice received bleomycin, but not LNP treatment (No LNP), and control mice received saline instead of bleomycin and LNP treatment (No Bleo). Tissues were harvested on day 24 post bleomycin. Lungs were […]. […] Telomerase activity was measured in lung tissue lysate using the telomeric repeat amplification protocol (TRAP) assay. […]

[2] abbreviates: Liver Left Lobe, dosed as 5-lipid LNP of Table 1, CD1 male mice.
[3] abbreviates: Liver Rest (liver excluding left lobe), 5-lipid LNP of Table 1, CD1 male mice.
[4] abbreviates: Lung Right Lobes, 5-lipid LNP of Table 1, CD1 male mice.
Setting [5] is: Plasma, 5-lipid LNP of Table 1, CD1 male mice.
Setting [6] is: Spleen, 5-lipid LNP of Table 1, CD1 male mice.

As for `CCCCCCCC/C=C\CCCCCCCC(=O)OCC(C[N+](C)(C)C)OC(=O)CCCCCCC/C=C\CCCCCCCC` (stereo not drawn) [DOTAP, 1,2-dioleoyl-3-trimethylammonium-propane], the Decay constant in data set [1] (setting [2]) was determined as 0.066; in data set [1] (setting [3]) it was 0.050; in data set [1] (Lung Left Lobe, 5-lipid LNP of Table 1, CD1 male mice), 0.094; in data set [1] (setting [4]), 0.073; in data set [1] (setting [5]), 0.191; in data set [1] (setting [6]) it was 0.136. The half-life in data set [1] (setting [2]) was 10.5 h; in data set [1] (setting [3]), 13.8 h; in data set [1] (setting [4]) it was 9.51 h; in data set [1] (setting [5]) it was 3.63 h; in data set [1] (setting [6]), 5.09 h.

Consider bleomycin, for which, in the data set on P21, the “senescence (P21)” value is listed as “Increase in senescence”.
